According to patent publication US20210047693A1, “METHODS OF TREATING EXTRACHROMOSOMAL DNA EXPRESSING CANCERS” (THE REGENTS OF THE UNIVERSITY OF CALIFORNIA, priority 2017, published 2021):

Legend:
Type in all cases: cell-based
[1] = tested on: GBM cells; assay: Glucose levels in cells
[2] = tested on: GBM cells; assay: Loss of EGFR-containing ecDNA / EGFR oncogene DNA (number of ecDNAs per metaphase)
[3] = tested on: ecDNA; assay: Replication stress on ecDNA versus chromosomal DNA; settings: vehicle versus erlotinib; ecDNA vs chromosomal DNA
[4] = tested on: GBM39 cells; assay: Exosomal export of oncogenes amplified on ecDNA (FISH probe and PCR analysis of purified exosomes); settings: exosomes purified from treated GBM39 cells
[5] = tested on: isogenic paired GBM39 cells; assay: 3D soft agar assay; settings: GBM39 isogenic pair
From the text: (§1) FIGS. 13A-13B. […] FIG. 13A) 3D soft agar assay in isogenic paired GBM39 cells treated with Olaparib or Rucaparib. Quantification of colonies as measured by ColonyArea software (bottom). FIG. 13B) 3D soft agar assay in isogenic paired COLO320 cells (a colon cancer cell line) treated with Olaparib or Rucaparib. Quantification of colonies as measured by ColonyArea software (bottom).

[6] = tested on: isogenic paired COLO320 cells; assay: 3D soft agar assay; settings: COLO320 isogenic pair (colon cancer cell line)
From the text: as §1

[7] = tested on: PC3 cells; assay: 2D colony formation assay with crystal violet staining; settings: PC3 cells compared with immortalized HEK293 cells
Description: FIGS. 12A-12C. […] FIG. 12A) Acute cell toxicity following 4 days treatment with 10 μM of indicated PARPi. Cell death measured by FACS analysis of Sytox Red staining in 2 normal cell types (astrocytes and HEK293), PC3 ecDNA-containing cells, and the paired GBM39 cells. FIG. 12B) 2D colony formation assay and crystal violet staining in immortalized HEK293 cells and PC3 cells after treatment with Olaparib or Rucaparib. FIG. 12C) Colony number quantification by Colony Area software plug-in for ImageJ from data in (FIG. 12B).

Structure (SMILES) | glucose levels in GBM cells [1] | loss of ecDNA containing amplified EGFRvIII (number of ecDNAs per metaphase) [2] | replication stress on ecDNA (frequency of pRPA(533) positive metaphase) [3] | cellular level of oncogenes amplified on ecDNA, via exosomal export [4] | 3D soft agar colonies [5] | 3D soft agar colonies [6] | 2D colony formation (colony number) [7]
C#Cc1cccc(Nc2ncnc3cc(OCCOC)c(OCCOC)cc23)c1 [erlotinib] | lowers glucose levels in GBM cells | causes the loss of ecDNA containing amplified EGFRvIII | specifically causes replication stress on ecDNA, but not on chromosomal DNA | reduction of cellular level of oncogenes amplified on ecDNA | – | – | –
O=C(c1cc(Cc2n[nH]c(=O)c3ccccc23)ccc1F)N1CCN(C(=O)C2CC2)CC1 [Olaparib, olaparib] | – | – | – | – | sensitive to PARP inhibition | sensitive to PARP inhibition | sensitive to PARP inhibition
CNCc1ccc(-c2[nH]c3cc(F)cc4c3c2CCNC4=O)cc1 [Rucaparib, rucaparib] | – | – | – | – | sensitive to PARP inhibition | sensitive to PARP inhibition | sensitive to PARP inhibition
